According to ChEMBL document CHEMBL5303304, “EUbOPEN Chemogenomics Library - IncuCyte” (2023):

Assays:
Assay type in all cases: toxicity, cell-based
[1] = test system: U2OS; assay: Incucyte cell viability with U2OS; conditions: human, 10 µM, compound concentration 10 uM
[2] = test system: Fibroblast; assay: Incucyte cell viability with human fibroblast; conditions: 10 µM, compound concentration 10 uM
[3] = test system: HEK-293T; assay: Incucyte cell viability with HEK293T; conditions: human, 10 µM, compound concentration 10 uM
Note: unitless GR value; below 1 slowed growth and below 0 cell loss.

Row | SMILES | Growth Rate ([1]; 6 h, replicate number 2) | Growth Rate ([1]; 12 h, replicate number 1) | Growth Rate ([1]; 12 h, replicate number 2) | Growth Rate ([1]; 18 h, replicate number 2) | Growth Rate ([1]; 24 h, replicate number 1) | Growth Rate ([1]; 24 h, replicate number 2) | Growth Rate ([2]; 6 h, replicate number 2) | Growth Rate ([2]; 12 h, replicate number 1) | Growth Rate ([2]; 12 h, replicate number 2) | Growth Rate ([2]; 18 h, replicate number 1) | Growth Rate ([2]; 18 h, replicate number 2) | Growth Rate ([2]; 24 h, replicate number 1) | Growth Rate ([2]; 24 h, replicate number 2) | Growth Rate ([3]; 6 h, replicate number 1) | Growth Rate ([3]; 18 h, replicate number 2) | Growth Rate ([1]; 0 h, replicate number 1) | Growth Rate ([1]; 6 h, replicate number 1) | Growth Rate ([3]; 0 h, replicate number 2) | Growth Rate ([2]; 6 h, replicate number 1) | Growth Rate ([3]; 0 h, replicate number 1) | other results
1 | CN(C)C/C=C/C(=O)Nc1cccc(S(=O)(=O)N2CCC(NC(=O)c3n[nH]cc3NC(=O)c3c(Cl)cc(Cl)cc3Cl)CC2)c1 | 0.35 | 0.1 | -0.3 | -0.38 | -0.51 | -0.42 | 0.98 | 0.8 | 0.45 | 0.26 | 0.09 | 0.12 | -0.13 | -0.58 | -0.61 | – | – | – | – | – | Growth Rate ([1]; 18 h, replicate number 1): -0.42; Growth Rate ([3]; 6 h, replicate number 2): -0.85; Growth Rate ([3]; 12 h, replicate number 1): -0.49; Growth Rate ([3]; 12 h, replicate number 2): -0.7; Growth Rate ([3]; 18 h, replicate number 1): -0.34; Growth Rate ([3]; 24 h, replicate number 1): -0.05; Growth Rate ([3]; 24 h, replicate number 2): -0.34
2 | C=CC[C@@H]1/C=C(\C)C[C@H](C)C[C@H](OC)[C@H]2O[C@@](O)(C(=O)C(=O)N3CCCC[C@H]3C(=O)O[C@H](/C(C)=C/[C@@H]3CC[C@@H](O)[C@H](OC)C3)[C@H](C)[C@@H](O)CC1=O)[C@H](C)C[C@@H]2OC.O [TACROLIMUS] | 0.5 | 0.75 | 0.7 | 0.87 | – | 0.85 | -0.26 | – | 0.85 | 0.96 | – | – | – | -0.24 | 0.82 | 0.59 | 0.95 | -0.12 | – | – | Growth Rate ([1]; 0 h, replicate number 2): -1; Growth Rate ([1]; 18 h, replicate number 1): 0.81; Growth Rate ([2]; 0 h, replicate number 2): -0.85; Growth Rate ([3]; 6 h, replicate number 2): 0.77; Growth Rate ([3]; 12 h, replicate number 1): 0.41; Growth Rate ([3]; 12 h, replicate number 2): 0.99; Growth Rate ([3]; 18 h, replicate number 1): 0.78; Growth Rate ([3]; 24 h, replicate number 1): 0.87; Growth Rate ([3]; 24 h, replicate number 2): 0.99
3 | O=C(O)CCCCN(CCc1cc(F)ccc1OCc1ccc(-c2ccc(C(F)(F)F)cc2)cc1)Cc1ccc(C(=O)O)cc1 | 0.58 | – | 0.87 | 0.85 | – | 0.91 | – | 0.66 | – | 0.85 | – | 0.96 | – | – | – | 0.99 | 0.61 | -0.87 | 0.59 | 0.09 | Growth Rate ([1]; 0 h, replicate number 2): -0.4; Growth Rate ([2]; 0 h, replicate number 1): -1; Growth Rate ([2]; 0 h, replicate number 2): -0.98
4 | C=C[C@@]12CCc3cc(O)ccc3[C@H]1CC[C@@]1(C)[C@H]2CC[C@@H]1O | 0.96 | 0.99 | 0.95 | 0.93 | – | 0.91 | 0.88 | 0.86 | 0.29 | 0.92 | 0.95 | 0.83 | 0.71 | – | – | 0.1 | 0.77 | -0.37 | 0.24 | 0.4 | Growth Rate ([2]; 0 h, replicate number 1): -1
5 | CC(=O)Nc1nc(CN2CCC[C@H](Cc3cc(C)nc(C)c3)C2)cs1 [JNJ-73924149] | – | – | 0.87 | – | – | 0.91 | 0.73 | 0.89 | 0.74 | 0.87 | 0.72 | – | 0.79 | 0.52 | 0.95 | – | – | – | 0.58 | – | Growth Rate ([1]; 18 h, replicate number 1): 0.89; Growth Rate ([3]; 6 h, replicate number 2): 0.53; Growth Rate ([3]; 12 h, replicate number 1): 0.71; Growth Rate ([3]; 18 h, replicate number 1): 0.81; Growth Rate ([3]; 24 h, replicate number 1): 0.82; Growth Rate ([3]; 24 h, replicate number 2): 0.95
6 | COc1ccc(OC(=O)N(CC(=O)O)Cc2ccc(OCCc3nc(-c4ccccc4)oc3C)cc2)cc1 [MURAGLITAZAR] | 0.71 | – | 0.94 | – | – | 0.87 | 0.43 | 0.76 | 0.56 | 0.79 | 0.72 | – | 0.97 | 0.89 | 0.51 | -0.96 | – | -1 | 0.85 | – | Growth Rate ([1]; 0 h, replicate number 2): 0.98; Growth Rate ([3]; 6 h, replicate number 2): 0.07; Growth Rate ([3]; 12 h, replicate number 1): 0.94; Growth Rate ([3]; 12 h, replicate number 2): 0.42; Growth Rate ([3]; 24 h, replicate number 2): 0.5
7 | O=c1ccc2c(OCCCCOc3ccccc3)c3ccoc3cc2o1 | 0.99 | – | – | – | 0.92 | – | – | – | 0.95 | – | – | 0.92 | – | – | – | 0.26 | 0.73 | 0.37 | – | 0.49 | Growth Rate ([1]; 18 h, replicate number 1): 0.99
8 | CCOC(=O)c1cc2cc(-c3cc(C(=O)NCc4ccc(C(=O)O)cc4)nn3C)ccc2[nH]1 [BI 4394] | – | – | 0.96 | 0.99 | 0.96 | – | 0.71 | – | 0.54 | – | 0.7 | – | 0.86 | 0.88 | – | 0.89 | 0.74 | 0.34 | – | 0.13 | Growth Rate ([3]; 12 h, replicate number 1): 0.98; Growth Rate ([3]; 18 h, replicate number 1): 0.93
9 | Cn1cc(-n2cnc3c(NCc4nc5cc(Cl)c(Cl)cc5[nH]4)nc(N4CCOCC4)nc32)cn1 | -0.74 | 0.64 | -0.72 | -0.54 | -0.09 | -0.53 | -0.32 | 0.37 | -0.22 | 0.46 | -0.06 | 0.54 | 0 | -0.17 | -0.48 | -0.99 | – | 0.65 | 0.08 | -0.86 | Growth Rate ([1]; 0 h, replicate number 2): -0.97; Growth Rate ([1]; 18 h, replicate number 1): 0.1; Growth Rate ([2]; 0 h, replicate number 1): -1; Growth Rate ([2]; 0 h, replicate number 2): -0.31; Growth Rate ([3]; 6 h, replicate number 2): -0.51; Growth Rate ([3]; 12 h, replicate number 1): -0.21; Growth Rate ([3]; 12 h, replicate number 2): -0.56; Growth Rate ([3]; 18 h, replicate number 1): -0.23; Growth Rate ([3]; 24 h, replicate number 1): -0.18; Growth Rate ([3]; 24 h, replicate number 2): -0.36
10 | C[C@@H](C(N)=O)[C@H](N)c1nc2cc(C(C)(C)C)ccc2[nH]1 [PF-06305591] | – | 0.69 | 0.86 | 0.91 | 0.95 | 0.99 | – | -0.52 | – | – | 0.77 | – | – | – | 0.91 | -0.1 | – | – | -0.98 | – | Growth Rate ([1]; 0 h, replicate number 2): -0.8; Growth Rate ([2]; 0 h, replicate number 1): 0.3; Growth Rate ([3]; 6 h, replicate number 2): 0.51; Growth Rate ([3]; 12 h, replicate number 2): 0.9; Growth Rate ([3]; 24 h, replicate number 2): 0.94
11 | COc1cc(Nc2ccc([N+](=O)[O-])cc2C(=O)O)cc2ccccc12 | – | – | – | – | 0.98 | – | -0.6 | – | 0.4 | -0.31 | 0.45 | 0.68 | 0.63 | – | – | 0.77 | – | 0.13 | – | 0.41 | Growth Rate ([1]; 0 h, replicate number 2): -0.1
12 | CCCc1c(OCCCOc2ccc(OCC(=O)O)cc2)ccc(C(C)=O)c1O | – | 0.84 | – | – | – | – | – | 0.74 | 0.87 | 0.6 | – | 0.94 | – | – | 0.97 | – | 0.97 | -0.76 | 0.58 | – | Growth Rate ([2]; 0 h, replicate number 2): -0.08; Growth Rate ([3]; 12 h, replicate number 2): 0.94
13 | C[C@H](C[C@H](N)C(=O)O)C(=O)O [2S,4R-4-METHYLGLUTAMATE] | 0.65 | – | 0.89 | 0.82 | – | 0.94 | 0.92 | – | 0.66 | – | – | 0.42 | 0.97 | – | – | – | – | 0.9 | – | – | Growth Rate ([2]; 0 h, replicate number 2): -0.67
14 | O=C(Nc1ccc(S(=O)(=O)Nc2nccs2)cc1)C(c1ccccc1)c1ccccc1 | – | 0.81 | 0.82 | – | 0.94 | – | – | – | 0.85 | 0.49 | – | – | – | 0.94 | 0.82 | – | – | – | – | 0.71 | Growth Rate ([2]; 0 h, replicate number 2): -0.85; Growth Rate ([3]; 6 h, replicate number 2): 0.52; Growth Rate ([3]; 24 h, replicate number 1): 0.88; Growth Rate ([3]; 24 h, replicate number 2): 0.9
15 | N#Cc1cccc(-c2c[nH]c3ncnc(N4CCOCC4)c23)c1 | – | 0.88 | – | 0.94 | 0.97 | 0.98 | – | – | – | – | – | – | – | – | – | – | 0.91 | – | – | -0.86 | Growth Rate ([1]; 18 h, replicate number 1): 0.31; Growth Rate ([2]; 0 h, replicate number 1): -0.42; Growth Rate ([2]; 0 h, replicate number 2): -0.76
16 | O=C(NCC1(N2CCN(c3ccccc3)CC2)CCOCC1)c1cccnc1Sc1ccccc1 | 0.73 | 0.95 | 0.86 | 0.92 | – | 0.93 | – | -1 | – | -0.49 | – | – | – | – | – | 0.14 | 0.97 | -0.38 | 0.02 | 0.97 | Growth Rate ([1]; 0 h, replicate number 2): -0.32
